Measured values taken from paper PMC7036871, “Identification and Characterization of pantocin wh-1, a Novel Cyclic Polypeptide Produced by Pantoea dispersa W18” (Molecules, 2020).
Entries after “also recorded” stand apart in the source; their conditions may differ. Where a SMILES comes first, the peptide text is derived from it.

What was measured:
proteinase K = proteinase K (Parengyodontium album, UniProt P06873); test: Effect of enzymes on antibacterial activity: proteinase K; format: in vitro ADME
Chain of proteinase K (P06873 106-384): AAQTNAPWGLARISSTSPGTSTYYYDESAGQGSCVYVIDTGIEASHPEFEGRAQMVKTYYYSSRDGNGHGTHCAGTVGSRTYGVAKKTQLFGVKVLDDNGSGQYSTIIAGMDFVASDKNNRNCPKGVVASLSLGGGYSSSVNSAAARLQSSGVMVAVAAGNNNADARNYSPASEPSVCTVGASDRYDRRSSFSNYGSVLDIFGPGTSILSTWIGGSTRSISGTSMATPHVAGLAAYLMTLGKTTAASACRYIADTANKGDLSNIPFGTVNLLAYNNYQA
From the text: (§1) Furthermore, the antibacterial activity of pantocin wh-1 also retained nearly 100% of the initial activity within a broad pH range (pH 2–12).
(§2) The effect of various enzymes, pH, and temperature on pantocin wh-1 activity was detected as described by J.-M. Chobert et al. with a slight modification. Proteinase K, trypsin, catalase, lysozyme, DNAse, and RNAse were used to test the antibacterial activity of pantocinwh-1. To analyze the effect of different pH values on the antibacterial activity of pantocin wh-1, the sample of pantocin wh-1 was exposed to buffer with a pH value of 2–12 for 1 h at 25 °C. The effect of temperature on the anti-mycobacterial activity of pantocin wh-1 was determined by incubating pantocin wh-1 at 50 °C and 100 °C for 60 min, as well as at 121 °C for 15 min, and then detecting the bactericidal activity against M. smegmatis mc^2 155.

trypsin = test: Effect of enzymes on antibacterial activity: trypsin; format: in vitro ADME
From the text: as §1, §2

S. pyogenes = test: Antimicrobial spectrum, microporous dilution method; format: cell-based; parameters: key: -: no inhibitory activity; +: Inhibit the growth of less than 10% amount of the initial bacteria; ++: Inhibit the growth of less than 50% amount of the initial bacteria; +++: Inhibit the growth of initial bacteria completely; conditions: medium BHI
Method: (§3) In this paper, the microporous dilution method was used to detect the antibacterial spectrum of pantocin wh-1 against Gram-negative and -positive bacteria. […] The time kill studies were determined over 8 h with M. smegmatis mc^2 155 being exposed to 0.5, 1, 2, or 4 × MIC of pantocin wh-1. […] At 2 × MIC and 4 × MIC, pantocin wh-1 caused bacterial eradication was completed approximately after 4 h.
(§4) The antibacterial activity of the pantocin wh-1 was detected by the microscale optical density assay (MODA) method. Briefly, 90 μL of the dilutions of pantocin wh-1, 100 μL 2 × 7H9 medium, and 10 μL of a log phase indicator strain were co-incubated in the 96-well plate at 37 °C for 48 h. For control groups, 90 μL of the dilutions of pantocin wh-1 were replaced by an equal volume of sterile water. After incubation, the 96 well microplate was measured by a microplate reader at a 600 nm wavelength (Biotek synergyH1, Biotek, Winooski, VT, USA). The amount of pantocin wh-1 produced by P. dispersa W18 was determined using two fold dilutions. […] The results were expressed in AU/mL. The MIC was defined as the last dilution of pantocin wh-1 sufficient to prevent indicator strain growth in vitro.

S. aureus AM025 = test: as above; format: cell-based; parameters: key: -: no inhibitory activity; +: Inhibit the growth of less than 10% amount of the initial bacteria; ++: Inhibit the growth of less than 50% amount of the initial bacteria; +++: Inhibit the growth of initial bacteria completely; conditions: S. aureus AM025, medium LB
Method: as §3, §4

P. aeruginosa = test: as above; format: cell-based; parameters: key: -: no inhibitory activity; +: Inhibit the growth of less than 10% amount of the initial bacteria; ++: Inhibit the growth of less than 50% amount of the initial bacteria; +++: Inhibit the growth of initial bacteria completely; conditions: medium LB
Method: as §3, §4

Dysgalactiae = test: as above; format: cell-based; parameters: key: -: no inhibitory activity; +: Inhibit the growth of less than 10% amount of the initial bacteria; ++: Inhibit the growth of less than 50% amount of the initial bacteria; +++: Inhibit the growth of initial bacteria completely; conditions: medium BHI
Method: as §3, §4

S. aureus B30 = test: as above; format: cell-based; parameters: key: -: no inhibitory activity; +: Inhibit the growth of less than 10% amount of the initial bacteria; ++: Inhibit the growth of less than 50% amount of the initial bacteria; +++: Inhibit the growth of initial bacteria completely; conditions: S. aureus B30, medium LB
Method: as §3, §4

[1] = as above; format: cell-based; parameters: key: -: no inhibitory activity; +: Inhibit the growth of less than 10% amount of the initial bacteria; ++: Inhibit the growth of less than 50% amount of the initial bacteria; +++: Inhibit the growth of initial bacteria completely; conditions: White aureus 8799, medium LB
Method: as §3, §4

M. tuberculosis H37Ra = format: cell-based, Mycobacterium tuberculosis; parameters: key: -: no inhibitory activity; +: Inhibit the growth of less than 10% amount of the initial bacteria; ++: Inhibit the growth of less than 50% amount of the initial bacteria; +++: Inhibit the growth of initial bacteria completely; conditions: M. tuberculosis Ra, medium 7H9
M. bovis BCG = format: cell-based; parameters: key: -: no inhibitory activity; +: Inhibit the growth of less than 10% amount of the initial bacteria; ++: Inhibit the growth of less than 50% amount of the initial bacteria; +++: Inhibit the growth of initial bacteria completely; conditions: medium 7H9
S. suis = test: Antimicrobial spectrum, microporous dilution method; format: cell-based, Streptococcus suis
Method: as §3, §4

RNase = RNase (Bos taurus, UniProt P61823); test: Effect of enzymes on antibacterial activity: RNase; format: in vitro ADME
Chain of RNase (P61823 27-150): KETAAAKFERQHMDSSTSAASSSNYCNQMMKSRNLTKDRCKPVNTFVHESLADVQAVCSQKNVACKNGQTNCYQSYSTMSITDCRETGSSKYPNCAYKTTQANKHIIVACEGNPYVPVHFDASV
From the text: as §1, §2

DNase = test: Effect of enzymes on antibacterial activity: DNase; format: in vitro ADME
From the text: as §1, §2

S. aureus N315 = test: Antimicrobial spectrum, microporous dilution method; format: cell-based; parameters: key: -: no inhibitory activity; +: Inhibit the growth of less than 10% amount of the initial bacteria; ++: Inhibit the growth of less than 50% amount of the initial bacteria; +++: Inhibit the growth of initial bacteria completely; conditions: S. aureus N315, medium LB
lysozyme = test: Effect of enzymes on antibacterial activity: lysozyme; format: in vitro ADME
From the text: as §1, §2

## CSCC[C@@H]1NC(=O)[C@H](C(C)C)NC(=O)[C@H](Cc2c[nH]c3ccccc23)NC(=O)[C@H](C(C)C)NC(=O)[C@H](C)NC(=O)[C@H](CS)NC(=O)[C@H](CC(N)=O)NC(=O)[C@H](Cc2ccccc2)NC(=O)CNC(=O)[C@H](Cc2ccc(O)cc2)NC(=O)CNC(=O)[C@H](Cc2ccccc2)NC(=O)[C@H](C(C)C)NC(=O)[C@H](Cc2ccc(O)cc2)NC(=O)[C@H](CS)NC(=O)[C@H](Cc2c[nH]c3ccccc23)NC1=O [pantocin wh-1] (cyclo(AVWVMWCYVFGYGFNC))
Proteinase K
  inhibitory activity after proteinase K: inactivated completely
trypsin; trypsin
  inhibitory activity after trypsin: not completely inactivated; also recorded: partial sensitivity
trypsin; trypsin treatment, compared with antimicrobial activity before the treatment
  Residual activity: 27%
S. pyogenes
  Inhibition activity: -
S. aureus AM025
  Inhibition activity: -
P. aeruginosa
  Inhibition activity: -
Dysgalactiae
  Inhibition activity: -
S. aureus B30
  Inhibition activity: -
[1]
  Inhibition activity: -
M. tuberculosis H37Ra
  Inhibition activity: +++
pepsin
  activity after pepsin: not completely inactivated
M. bovis BCG
  Inhibition activity: +++
S. suis; S. suis, medium BHI
  Inhibition activity: + (Inhibit the growth of less than 10% amount of the initial bacteria)
S. suis; Streptococcus suis
  inhibitory activity: partial inhibitory activity
RNase; RNase A
  antibacterial activity after RNase A: insensitive
RNase; RNase treatment, compared with antimicrobial activity before the treatment
  Residual activity: 100%
DNase; DNase I
  antibacterial activity after DNase I: insensitive
DNase; DNase treatment, compared with antimicrobial activity before the treatment
  Residual activity: 100%
S. aureus N315
  Inhibition activity: -
lysozyme; lysozyme
  antibacterial activity after lysozyme: insensitive
lysozyme; lysozyme treatment, compared with antimicrobial activity before the treatment
  Residual activity: 100%
